Data taken from patent US20250338846A1, “COMPOSITIONS HAVING PESTICIDAL UTILITY AND PROCESSES RELATED THERETO” (CORTEVA AGRISCIENCE, LLC, priority 2022, published 2025).

How the values were obtained:
Format in all cases: in vivo
[1] = system: Sweet Potato Whitefly (Bemisia tabaci, BEMITA); test: Bioassay 2: Sweet Potato Whitefly, spray on cotton seedlings at crawler emergence, nymphs counted 7-9 days after treatment
Method in brief: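 Cotton seedlings pruned to one true leaf were colonized by adult B. tabaci for 24 h egg-laying, then sprayed once >25% crawler emergence was underway; solutions 0.001% to 0.00000001% (w/v) in acetone/water with 0.025% Tween 20. Held ~25° C; live 2-3 instar nymphs counted 7-9 days later, Abbott-corrected % control.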

[2] = system: Diamondback Moth (Plutella xylostella, PLUTMA); test: Bioassay 9: Diamondback Moth, leaves of track-sprayed cabbage plants, mortality and feeding damage scored; conditions: F1 alone 40 (10^-5) Wt %
[3] = system: Beet Armyworm (Spodoptera exigua, LAPHEG); test: Bioassay 6: Beet Armyworm, artificial lepidopteran diet, live larvae after 5 days; conditions: BAW
Method: where X=No. of live nymphs on solvent check and Y=No. of live nymphs on treated bean segments. In Table B5 the “Expected % Control” was calculated using the method described in Colby S. R., Weeds, 1967, 15, 20-22. Bioassay 6: Beet Armyworm (Spodoptera exigua, LAPHEG) (BAW), and Diamondback Moth (Plutella xylostella, PLUTMA) (DBM).
Stock solutions were prepared with Formula One as well as for each of the active ingredients individually. Test solutions were prepared from the stock solutions. Test solutions were prepared containing Formula One, the individual active ingredients, and mixtures of Formula One with each of the active ingredients. […]
The test solutions were tested against BAW and DBM using the following procedure: An artificial lepidopteran diet (Multispecies Lepidopteran Diet, Southland Products) was distributed in 128-cell bioassay trays (Frontier Agricultural Sciences™). […] After 5 days, the number of live larvae were recorded from each cell and percent control was measured using Abbott's correction formula (W. S. Abbott, J. Econ. Entomol. 18 (1925), pp. 265-267) as follows:
where X=No. of live larvae on solvent check and Y=No. of live larvae on treated diet. In Table B6 the “Expected % Control” was calculated using the method described in Colby S. R., Weeds, 1967, 15, 20-22. […]

Molecule | Average % Control AI ([1]; AI alone 1 (10-5) % w/v) [%] | Average % Control AI ([1]; AI alone 0.1 (10-5) % w/v) [%] | further results
Cc1c(COC(=O)[C@@H]2[C@H](/C=C(\Cl)C(F)(F)F)C2(C)C)cccc1-c1ccccc1 (racemic) [Bifenthrin] | 40 | – | –
CC1(C)[C@H](C(=O)O[C@H](C#N)c2cccc(Oc3ccccc3)c2)[C@@H]1/C=C(\Cl)C(F)(F)F (racemic) [Lambda Cyhalothrin] | 27 | – | –
C/C(=N\C#N)N(C)Cc1ccc(Cl)nc1 [Acetamiprid] | 29 | – | –
CCN(C(=O)CCS(C)(=O)=O)c1sc(-c2cccnc2)nc1Cl [Formula F1, N-(4-chloro-2-(pyridin-3-yl)thiazol-5-yl)-N-ethyl-3-(methylsulfonyl)propanamide] | – | – | Average % Control F1 ([2]; Acute mortality): 6.82%; Average % Control F1 ([2]; Feeding damage control): 8.53%; Average % Control F1 ([3]; F1 alone 0.4 % w/v): 0%
Abamectin | – | 16 | Average % Control AI ([3]; AI alone, Ratio F1:AI 100:1): 50%
Emamectin Benzoate | 5 | 0 | –
